Measured values from PubChem BioAssay (NCI).
Where “and” joins values, the source holds several entries; their conditions need not be identical. Equal values may be shown once.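 Cultured in 96-well plates, cells were exposed to test compound for 48 hours across five concentrations. Here, GI50 denotes the concentration required for 50% inhibition of growth. At the TGI there is no net growth.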

Key:
Assay in all cases: NCI anticancer screen, dose series, 48 h
HOP-92 NSCLC = test system: HOP-92 NSCLC
HCT-15 colon = test system: HCT-15 colon
K-562 leukemia = test system: K-562 leukemia
ACHN renal = test system: ACHN renal
OVCAR-8 ovarian = test system: OVCAR-8 ovarian
HOP-62 NSCLC = test system: HOP-62 NSCLC
RPMI-8226 leukemia = test system: RPMI-8226 leukemia
HS 578T breast = test system: HS 578T breast
HL-60(TB) leukemia = test system: HL-60(TB) leukemia
NCI/ADR-RES ovarian = test system: NCI/ADR-RES ovarian

| SMILES | GI50 (HOP-92 NSCLC) [µM] | TGI (HOP-92 NSCLC) [µM] | GI50 (HCT-15 colon) [µM] | TGI (HCT-15 colon) [µM] | GI50 (K-562 leukemia) | TGI (K-562 leukemia) [µM] | GI50 (ACHN renal) | TGI (ACHN renal) [µM] | GI50 (OVCAR-8 ovarian) [µM] | TGI (OVCAR-8 ovarian) [µM] | GI50 (HOP-62 NSCLC) [µM] | TGI (HOP-62 NSCLC) [µM] | GI50 (RPMI-8226 leukemia) | TGI (RPMI-8226 leukemia) [µM] | GI50 (HS 578T breast) | TGI (HS 578T breast) [µM] | GI50 (HL-60(TB) leukemia) [µM] | TGI (HL-60(TB) leukemia) [µM] | GI50 (NCI/ADR-RES ovarian) [µM] | TGI (NCI/ADR-RES ovarian) [µM] |
| --- | --- | --- | --- | --- | --- | --- | --- | --- | --- | --- | --- | --- | --- | --- | --- | --- | --- | --- | --- | --- |
| COc1cc2c(cc1NC(=O)C(Cl)Cl)-c1ccc(NC(=O)C(Cl)Cl)cc1C2 | 1.15 | 3.54 | 0.354 | 1.94 | 0.438 µM | 3.64 | 0.268 µM | 0.971 | 0.439 | 1.68 | 0.587 | 1.64 | 0.374 µM | 1.21 | 0.953 µM | > 34.7 | 0.568 | 3.37 | 0.789 | 4.42 |
| O=S(=O)(NCCCNc1cc(-c2cn(-c3ccccc3)nc2-c2cccc(O)c2)ccn1)c1ccc(F)cc1 | 2.66 | 7.62 | 2.45 | 7.9 | 2.4 µM | 6.38 | 3.52 µM | 33.8 | 4.15 | 18.3 | 4.98 | 19.3 | 2.23 µM | 7.63 | 2.71 µM | 9.22 | 2.2 | 5.85 | 3.24 | 22.4 |
| COc1cc(C(=O)/C=C/c2c(C(F)(F)F)nc3ccccn23)cc(OC)c1OC | 2.65 | 9.94 | 2.1 | 7.57 | 2.83 µM | > 100 | 1.95 µM | 3.79 | 3.39 | > 100 | 2.97 | 8.53 | 2.91 µM | > 100 | 3.27 µM | 54.6 | 4.12 | > 100 | 1.41 | 21.8 |
| O=S(=O)(O)c1ccc2cc3nn(-c4ccc(/C=C/c5ccc(-n6nc7cc8ccc(S(=O)(=O)O)cc8cc7n6)cc5S(=O)(=O)O)c(S(=O)(=O)O)c4)nc3cc2c1 | 88.7 | > 100 | 6.21 | > 100 | 61 µM | > 100 | 81.6 µM | > 100 | > 100 | > 100 | > 100 | > 100 | > 100 µM | > 100 | > 100 µM | > 100 | 31.9 | > 100 | > 100 | > 100 |
| C[C@@H](NC(=O)c1ccc(F)cc1)c1ccc2c(c1)CCN2C(=O)C1CCOCC1 | > 100 | > 100 | > 100 | > 100 | > 100 µM | > 100 | > 100 µM | > 100 | > 100 | > 100 | > 100 | > 100 | > 100 µM | > 100 | > 100 µM | > 100 | > 100 | > 100 | > 100 | > 100 |
| COc1ccc2c(c1)C(=O)c1c-2c(=O)n(CCCN(C)C)c2cc(OC)c(OC)cc12 | > 100 | > 100 | 12.6 | 27.4 | 4.75 µM | 24 | 2.76 µM | 14.4 | 4.6 | 23 | 0.682 | > 100 | 8.14 µM | 42.3 | 16.2 µM | 36.7 | 10.4 | 31.7 | 5.93 | 23.6 |
| CC(=O)N(O)c1ccc(/C=C/c2ccccc2)cc1 | 1.14 | 3.65 | 2.9 | > 100 | 7.39 µM | > 100 | 0.26 µM | 2.08 | 1.59 | > 52.5 | 1.98 | > 35.7 | 3.21 µM | > 100 | 3.62 µM | 68.8 | 1.07 | > 100 | 2.21 | 44.1 |
| COC(=O)c1cc([N+](=O)[O-])cc([N+](=O)[O-])c1Cl | 1.64 | 3.04 | 2.19 | 5.44 | 2.24 µM | > 100 | 1.76 µM | 3.21 | 2.01 | 4.38 | 2.65 | 8.09 | 2.4 µM | 5.66 | 2.28 µM | 5.86 | 3.98 | 27.5 | 2.8 | 8.71 |
| Cc1cc2c(c(=O)o1)C1=S(SC(c3ccccc3)=C1)S2 (stereo not drawn) | – | 83 | – | > 100 | – | > 100 | – | > 100 | – | > 100 | – | 45.5 | – | > 100 | – | 96 | – | – | – | > 100 |
| Cc1ccc(S(=O)(=O)NC(=O)OC23COCN2COC3)cc1 | – | > 100 | – | > 100 | – | > 100 | – | > 100 | – | > 100 | – | > 100 | – | 73 | – | > 100 | – | – | – | > 100 |
| O=C(c1cc(Cc2n[nH]c(=O)c3ccccc23)ccc1F)N1CCN(C(=O)C2CC2)CC1 | – | > 100 | > 100 | > 100 | 54.5 µM and > 66.4 µM | > 100 | 96.1 µM and 88.2 µM | > 100 | > 100 | > 100 | 43.2 | > 100 | 30.5 µM and 35.7 µM | > 100 | 12.4 µM and > 100 µM | > 100 | > 100 | > 100 | > 100 | > 100 |
| CC1CCN(CCOc2ccc(CNc3ccc4nc(CCC5CCCCC5)[nH]c4c3)cc2)CC1 | 0.643 | 2.23 | 1.43 | 3.03 | 0.594 µM | 2.44 | 1.76 µM | 3.22 | 1.96 | 4.24 | 1.68 | 3.21 | 1.38 µM | 3.35 | 1.67 µM | 4.06 | 1.83 | 3.99 | 1.81 | 4.12 |
| O=c1[nH]c(=S)[nH]c(-c2ccccc2)c1Cc1c(O)ccc2ccccc12 | – | > 100 | – | > 100 | – | > 100 | – | > 100 | – | > 100 | – | > 100 | – | 67.6 | – | > 100 | – | 50.5 | – | > 100 |
| CC1=NNC(=S)NCCCN2CCN(CCCNC(=S)NN=C(C)C=NNC(=S)NCCCN3CCN(CCCNC(=S)NN=C1)CC3)CC2 | – | > 100 | – | > 100 | – | > 100 | – | > 100 | – | > 100 | – | > 100 | – | > 100 | – | > 100 | – | > 100 | – | > 100 |
| C[C@H]1CN(C2COC2)CCN1c1ccc(Nc2cc(-c3ccnc(N4CCn5c(cc6c5CC(C)(C)C6)C4=O)c3CO)cn(C)c2=O)nc1 | 12.6 | 64.6 | 47 | > 100 | – | – | 30.2 µM | > 100 | 54.3 | > 100 | 39.1 | > 100 | 13.1 µM | 60.7 | 27.7 µM | > 100 | 16.6 | 47.2 | 47.8 | > 100 |
| Cc1ccc(-n2c(-c3cc4c([nH]c5ccccc54)c(-c4cccc(O)c4)n3)n[nH]c2=S)cc1 | 4.76 | 27.4 | 0.61 | 6.94 | 0.523 µM | > 100 | 2.37 µM | 15.4 | 0.442 | 3.67 | 1.24 | 4.87 | 0.808 µM | 3.76 | 1.74 µM | 36.2 | 1.08 | 3.43 | 4.14 | 24.1 |
| Fc1ccc2nc(-c3nc(-c4ccccc4)n4ccccc34)[nH]c2c1 | 1.73 | 6.42 | 4.29 | 27.7 | 3.47 µM | > 100 | 2.25 µM | 5.94 | 1.87 | 4.1 | 1.94 | 3.84 | – | – | 3.56 µM | 25 | 14.9 | > 100 | 2.23 | 6.01 |
| CC1CCC2C(CN(CC3=C(C(F)(F)F)OC4OC5(C)CCC6C(C)CCC3C46OO5)CC3=C(C(F)(F)F)OC4OC5(C)CCC6C(C)CCC3C46OO5)=C(C(F)(F)F)OC3OC4(C)CCC1C32OO4 (stereo not drawn) | 6.3 | 33.4 | 10 | 25.7 | 5.58 µM | 22.1 | 1.81 µM | 3.49 | 14.1 | 76.4 | 28.3 | 71.9 | – | – | 17.9 µM | 61.4 | 3.12 | 10.7 | 26.8 | 73.2 |
| Clc1nc(Cl)c2ncn(CCOCCn3cnc4c(Cl)nc(Cl)nc43)c2n1 | 0.2 | 0.687 | 0.185 | 0.365 | 0.361 µM | > 100 | 0.328 µM | 0.811 | 0.228 | 0.486 | 0.202 | 0.36 | – | – | 0.289 µM | 0.693 | – | – | 0.216 | 0.424 |
| O=S(=O)(NCCCNc1nccc(-c2c(-c3ccc(F)cc3)nc3sccn23)n1)c1ccc(F)cc1 | – | – | 3.92 | > 100 | 4.62 µM | > 100 | 4.61 µM | > 100 | 4.56 | > 100 | 24.8 | > 100 | 5.29 µM | 86 | 9.66 µM | > 100 | 8.38 | > 100 | 6.6 | > 100 |
| Cc1cc(O)c2c3c(ccc2c1)C(=O)c1c(O)cccc1C3=O | – | > 100 | – | > 100 | – | > 100 | – | > 100 | – | > 100 | – | > 100 | – | > 100 | – | > 100 | – | – | – | > 100 |
| COc1ccc2nc3cc(Cl)ccc3c(N3CCN(c4ccnc(N5CCN(C)CC5)n4)CC3)c2c1 | 1.59 | 3.36 | 1.6 | 3.21 | – | – | 1.75 µM | 3.33 | 1.93 | 3.98 | 3.51 | 12.4 | 2.04 µM | 4.84 | 2.7 µM | 8.29 | 2.14 | 5.03 | 3.66 | 12.4 |
| COC1=C(OC)C(=O)C(CCCCCCCCCCO)=C(C)C1=O | 2.53 | 9.84 | 8.81 | 24.5 | – | – | 3.35 µM | 11.2 | 3.76 | 16.2 | 16 | 29.5 | 4 µM | 29.5 | 18.3 µM | > 100 | 3.71 | 11.5 | 3.34 | 13 |
| CSC1=Nc2c(c(C)c(-c3ccccc3)n2COC(CO)CO)C2=NC(=O)CN12 | > 100 | > 100 | > 100 | > 100 | > 100 µM | > 100 | > 100 µM | > 100 | > 100 | > 100 | 98.2 | > 100 | > 100 µM | > 100 | > 100 µM | > 100 | – | – | > 100 | > 100 |
| CN1C(=NCCO)NS(=O)(=O)c2ccccc21 | – | > 100 | – | > 100 | – | > 100 | – | > 100 | – | > 100 | – | > 100 | – | – | – | > 100 | – | > 100 | – | > 100 |
| C=C1C(=O)O[C@H]2[C@H]1CC/C(COC(=O)NCc1c[nH]c3ccc(F)cc13)=C\CC[C@@]1(C)O[C@@H]21 | 1.48 | 3.04 | 1.04 | 2.55 | 0.291 µM | 1.86 | 1.36 µM | 2.67 | 1.68 | 3.91 | 2 | 4.56 | 0.456 µM | 2.27 | 3.36 µM | 26.6 | – | – | 3.58 | 20.3 |
| COc1ccc(C2CC(c3ccc(N(C)C)cc3)=NN2c2ccc(S(N)(=O)=O)cc2)cc1 (stereo not drawn) | – | – | 2.99 | > 100 | 3.8 µM | > 100 | 3.37 µM | > 100 | 3.98 | > 100 | 3.96 | > 100 | 3.26 µM | 13.2 | 5.52 µM | 42.6 | 3.99 | 86.3 | 4.73 | > 100 |
